Assay: recombinant barcode read abundance after kanamycin selection (control-corrected) (log10(CPM+1)); higher = more efficient recombination; sequences stand for … in AGTGCAGAGAAAATCGGCCAGTTTTCTCTGCCTGCAGTCCGCATGCCGT…AGATTTATGCAGCGGACTGCCTTTCTCCCAAAGTGATAAACCGGACAGTATCATGGACCGGTTTTCCCGGTAATCCGTATTTGCAAGGTTGGTTTCACT; site = the 11-nt target
Procedure, shortened: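 Reported as log10(CPM+1), each value stands for recombination efficiency. That efficiency is the averaged, control-corrected counts per million of barcodes found at recombinant junctions. Cells from a pooled E. coli library pairing targets with IS621 bridge RNA target-binding loops were plated twice on chloramphenicol/ampicillin LB agar (control) and twice on chloramphenicol/ampicillin/kanamycin with 0.1 mM IPTG.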
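Note: IS621 recombinase and bridge RNA in Escherichia coli cells.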

## GATTCTTCTTGGGTTCTAACCTGTTGCCT (site GATTCTTCTAG)
  recombinant barcode read abundance (log10): 0.1

## GATTCTTCTTGGGTTCTAACCTGTTGCCT (site GCTTCTTCTAG)
  recombinant barcode read abundance (log10): 0.024

## GATTCTTCTTGGGTTCTAACCTGTTGCCT (site GGTTCTTCTAG)
  recombinant barcode read abundance (log10): 0.232

## GATTCTTCTTGGGTTCTAACCTGTTGCCT (site GTTTCTTCTAG)
  recombinant barcode read abundance (log10): 0

## GATTGGACTTGGGTTCTAACCTGTTGCTT (site AATTGGACTAA)
  recombinant barcode read abundance (log10): 0.38

## GATTGGACTTGGGTTCTAACCTGTTGCTT (site CATTGGACTAA)
  recombinant barcode read abundance (log10): 0.421

## GATTGGACTTGGGTTCTAACCTGTTGCTT (site GATTGGACTAA)
  recombinant barcode read abundance (log10): 0.661

## GATTGGACTTGGGTTCTAACCTGTTGCTT (site TATTGGACTAA)
  recombinant barcode read abundance (log10): 0.128

## GCAAAGCCTTGGGTTCTAACCTGTTGCCT (site GCAAAGCCTAG)
  recombinant barcode read abundance (log10): 1.18

## GCAAAGCCTTGGGTTCTAACCTGTTGCCT (site GCACAGACTAG)
  recombinant barcode read abundance (log10): 0.195

## GCAAGGACTTGGGTTCTAACCTGTTGCAG (site GCAAGGACTCT)
  recombinant barcode read abundance (log10): 2.6

## GCAAGGACTTGGGTTCTAACCTGTTGCAG (site GCACGGACTCT)
  recombinant barcode read abundance (log10): 0.165

## GCAAGGACTTGGGTTCTAACCTGTTGCAG (site GCAGGGACTCT)
  recombinant barcode read abundance (log10): 0.76

## GCAAGGACTTGGGTTCTAACCTGTTGCAG (site GCATGGACTCT)
  recombinant barcode read abundance (log10): 0.587

## GCAAGGCCTTGGGTTCTAACCTGTTGCCT (site ACAAGGCCTAG)
  recombinant barcode read abundance (log10): 0.0435

## GCAAGGCCTTGGGTTCTAACCTGTTGCCT (site CCAAGGCCTAG)
  recombinant barcode read abundance (log10): 0.721

## GCAAGGCCTTGGGTTCTAACCTGTTGCCT (site GCAAGGCCTAG)
  recombinant barcode read abundance (log10): 0.418

## GCAAGGCCTTGGGTTCTAACCTGTTGCCT (site TCAAGGCCTAG)
  recombinant barcode read abundance (log10): 0.0143

## GCAATTACTTGGGTTCTAACCTGTTGCTT (site GCAATTACTAA)
  recombinant barcode read abundance (log10): 0.0238

## GCAATTACTTGGGTTCTAACCTGTTGCTT (site TGGGGCCCTCG)
  recombinant barcode read abundance (log10): 0.078

## GCACCACCTTGGGTTCTAACCTGTTGCCT (site GCACAACCTAG)
  recombinant barcode read abundance (log10): 0.0145

## GCACCACCTTGGGTTCTAACCTGTTGCCT (site GCACCACCTAG)
  recombinant barcode read abundance (log10): 1.06

## GCACCACCTTGGGTTCTAACCTGTTGCCT (site GCACGACCTAG)
  recombinant barcode read abundance (log10): 0.178

## GCACCACCTTGGGTTCTAACCTGTTGCCT (site GCACTACCTAG)
  recombinant barcode read abundance (log10): 0.127

## GCACCGCCTTGGGTTCTAACCTGTTGCCT (site ACACCGCCTAG)
  recombinant barcode read abundance (log10): 0.667

## GCACCGCCTTGGGTTCTAACCTGTTGCCT (site CCACCGCCTAG)
  recombinant barcode read abundance (log10): 0.0991

## GCACCGCCTTGGGTTCTAACCTGTTGCCT (site GCACCGCCTAG)
  recombinant barcode read abundance (log10): 1.09

## GCACCGCCTTGGGTTCTAACCTGTTGCCT (site TCACCGCCTAG)
  recombinant barcode read abundance (log10): 0.0378

## GCACGCCCTTGGGTTCTAACCTGTTGCCT (site GCACGCCCTAG)
  recombinant barcode read abundance (log10): 0.711

## GCACGCCCTTGGGTTCTAACCTGTTGCCT (site TCCCGCCCTAG)
  recombinant barcode read abundance (log10): 0.0743

## GCACGCCCTTGGGTTCTAACCTGTTGCTT (site GCACGCCCTAA)
  recombinant barcode read abundance (log10): 0.737

## GCACGCCCTTGGGTTCTAACCTGTTGCTT (site GCGCGGCCTAA)
  recombinant barcode read abundance (log10): 0.181

## GCACTCCCTTGGGTTCTAACCTGTTGCCT (site GCACTCCCTAG)
  recombinant barcode read abundance (log10): 0.0516

## GCACTCCCTTGGGTTCTAACCTGTTGCCT (site GCCCTCCCTAG)
  recombinant barcode read abundance (log10): 0.0585

## GCACTCCCTTGGGTTCTAACCTGTTGCCT (site GCGCTCCCTAG)
  recombinant barcode read abundance (log10): 0.199

## GCACTCCCTTGGGTTCTAACCTGTTGCCT (site GCTCTCCCTAG)
  recombinant barcode read abundance (log10): 0.831
